Publication PMC4522657, “Identification of a DYRK1A Inhibitor that Induces Degradation of the Target Kinase using Co-chaperone CDC37 fused with Luciferase nanoKAZ” (Scientific Reports, 2015)

Columns and labels:
Test in all cases: Kinase panel, CaNDY 1 µM
Type in all cases: biochemical
Settings in all cases: CaNDY 1 µM relative to DMSO
CaMK4 = biological target: T1, CaMK4 (Homo sapiens, UniProt Q16566)
T1 construct: purchased Carna Biosciences
Description: (§1) Detailed information on the assay conditions is available on the website of Carna Biosciences (http://www.carnabio.com/english/index.html; Kobe, Japan). In brief, full-length human recombinant kinases were expressed using a baculovirus expression system as amino-terminal GST-fusion proteins, and purified by glutathione-Sepharose chromatography. The GenBank accession numbers of DYRK1A, DYRK1B, DYRK2, and DYRK3 were NP_001387.2, NP_004705.1, NP_003574.1, and NP_003573.2. Kinase activities were evaluated by Off-chip Mobility Shift Assay after reaction of 1 μM of the substrate DYRKtide-F with ATP (25 μM for DYRK1A, 50 μM for DYRK1B, 10 μM for DYRK2, and 5 μM for DYRK3). For each compound, a DMSO solution was diluted in assay buffer to yield a final concentration of 1% DMSO. After incubation for one hour at room temperature, substrate phosphorylation was analyzed by electrophoretic separation of the substrate and products using a Caliper LC3000 platform (Caliper Life Sciences, Mountain View, CA, USA). The phosphorylated product (P)/(P + substrate) ratio was calculated at each concentration of each small molecule and the percent inhibition was expressed relative to a control assay in the absence of the small molecule. […] The IC50 of each compound was calculated by interpolation on a log-concentration-response curve fitted with a four-parameter logistic equation.
(§2) All kinase assays were carried out at Carna Biosciences. The inhibitory map was made with Kinome Render[36].

ROCK1 = biological target: T2, ROCK1 (Homo sapiens, UniProt Q13464)
T2 construct: purchased Carna Biosciences
Description: as §1, §2

p38β = biological target: T3, p38β (Homo sapiens, UniProt Q15759)
T3 construct: purchased Carna Biosciences
Description: as §1, §2

FGR = biological target: T4, FGR (Homo sapiens, UniProt P09769)
T4 construct: purchased Carna Biosciences
Description: as §1, §2

MRCKα = biological target: T5, MRCKα (Homo sapiens, UniProt Q5VT25)
T5 construct: purchased Carna Biosciences
Description: as §1, §2

MARK1 = biological target: T6, MARK1 (Homo sapiens, UniProt Q9P0L2)
T6 construct: purchased Carna Biosciences
Description: as §1, §2

IKKε = biological target: T7, IKKε (Homo sapiens, UniProt Q14164)
T7 construct: purchased Carna Biosciences
Description: as §1, §2

CGK2 = biological target: T8, CGK2 (Homo sapiens, UniProt Q13237)
T8 construct: purchased Carna Biosciences
Description: as §1, §2

NEK4 = biological target: T9, NEK4 (Homo sapiens, UniProt P51957)
T9 construct: purchased Carna Biosciences
Description: as §1, §2

PKACγ = biological target: T10, PKACγ (Homo sapiens, UniProt P22612)
T10 construct: purchased Carna Biosciences
Description: as §1, §2

WNK3 = biological target: T11, WNK3 (Homo sapiens, UniProt Q9BYP7)
T11 construct: purchased Carna Biosciences
Description: as §1, §2

NEK2 = biological target: T12, NEK2 (Homo sapiens, UniProt P51955)
T12 construct: purchased Carna Biosciences
Description: as §1, §2

CDC7/ASK = biological target: T13, CDC7/ASK (Homo sapiens, UniProt O00311)
T13 construct: purchased Carna Biosciences
Description: as §1, §2

FLT4 = biological target: T14, FLT4 (Homo sapiens, UniProt P35916)
T14 construct: purchased Carna Biosciences
Description: as §1, §2

TSSK3 = biological target: T15, TSSK3 (Homo sapiens, UniProt Q96PN8)
T15 construct: purchased Carna Biosciences
Description: as §1, §2

AKT1 = biological target: T16, AKT1 (Homo sapiens, UniProt P31749)
T16 construct: purchased Carna Biosciences
Description: as §1, §2

EPHA2 = biological target: T17, EPHA2 (Homo sapiens, UniProt P29317)
T17 construct: purchased Carna Biosciences
Description: as §1, §2

FGFR1 = biological target: T18, FGFR1 (Homo sapiens, UniProt P11362)
T18 construct: purchased Carna Biosciences
Description: as §1, §2

CDK5/p25 = biological target: T19, CDK5/p25 (Homo sapiens, UniProt Q00535)
T19 construct: purchased Carna Biosciences
Description: as §1, §2

ALK = biological target: T20, ALK (Homo sapiens, UniProt Q9UM73)
T20 construct: purchased Carna Biosciences
Description: as §1, §2

FMS = biological target: T21, FMS (Homo sapiens, UniProt P07333)
T21 construct: purchased Carna Biosciences
Description: as §1, §2

KIT = biological target: T22, KIT (Homo sapiens, UniProt P10721)
T22 construct: purchased Carna Biosciences
Description: as §1, §2

NuaK2 = biological target: T23, NuaK2 (Homo sapiens, UniProt Q9H093)
T23 construct: purchased Carna Biosciences
Description: as §1, §2

NEK6 = biological target: T24, NEK6 (Homo sapiens, UniProt Q9HC98)
T24 construct: purchased Carna Biosciences
Description: as §1, §2

NEK1 = biological target: T25, NEK1 (Homo sapiens, UniProt Q96PY6)
T25 construct: purchased Carna Biosciences
Description: as §1, §2

EGFR(L861Q) = biological target: T26, EGFR(L861Q) (Homo sapiens, UniProt P00533, L861Q)
T26 construct: purchased Carna Biosciences
Description: as §1, §2

ACK = biological target: T27, ACK (Homo sapiens, UniProt Q07912)
T27 construct: purchased Carna Biosciences
Description: as §1, §2

PDK1 = biological target: T28, PDK1 (Homo sapiens, UniProt O15530)
T28 construct: purchased Carna Biosciences
Description: as §1, §2

MAP2K1_Cascade = biological target: T29, MAP2K1_Cascade (Homo sapiens, UniProt Q02750)
T29 construct: purchased Carna Biosciences
Description: as §1, §2

PKR = biological target: T30, PKR (Homo sapiens, UniProt P19525)
T30 construct: purchased Carna Biosciences
Description: as §1, §2

PEK = biological target: T31, PEK (Homo sapiens, UniProt Q9NZJ5)
T31 construct: purchased Carna Biosciences
Description: as §1, §2

QIK = biological target: T32, QIK (Homo sapiens, UniProt Q9H0K1)
T32 construct: purchased Carna Biosciences
Description: as §1, §2

BRSK2 = biological target: T33, BRSK2 (Homo sapiens, UniProt Q8IWQ3)
T33 construct: purchased Carna Biosciences
Description: as §1, §2

CDK9/CycT1 = biological target: T34, CDK9/CycT1 (Homo sapiens, UniProt P50750)
T34 construct: purchased Carna Biosciences
Description: as §1, §2

NPM1-ALK = biological target: T35, NPM1-ALK (Homo sapiens, UniProt P06748+Q9UM73)
T35 construct: purchased Carna Biosciences
Description: as §1, §2

DDR1 = biological target: T36, DDR1 (Homo sapiens, UniProt Q08345)
T36 construct: purchased Carna Biosciences
Description: as §1, §2

T28 sequence (O15530 whole entry): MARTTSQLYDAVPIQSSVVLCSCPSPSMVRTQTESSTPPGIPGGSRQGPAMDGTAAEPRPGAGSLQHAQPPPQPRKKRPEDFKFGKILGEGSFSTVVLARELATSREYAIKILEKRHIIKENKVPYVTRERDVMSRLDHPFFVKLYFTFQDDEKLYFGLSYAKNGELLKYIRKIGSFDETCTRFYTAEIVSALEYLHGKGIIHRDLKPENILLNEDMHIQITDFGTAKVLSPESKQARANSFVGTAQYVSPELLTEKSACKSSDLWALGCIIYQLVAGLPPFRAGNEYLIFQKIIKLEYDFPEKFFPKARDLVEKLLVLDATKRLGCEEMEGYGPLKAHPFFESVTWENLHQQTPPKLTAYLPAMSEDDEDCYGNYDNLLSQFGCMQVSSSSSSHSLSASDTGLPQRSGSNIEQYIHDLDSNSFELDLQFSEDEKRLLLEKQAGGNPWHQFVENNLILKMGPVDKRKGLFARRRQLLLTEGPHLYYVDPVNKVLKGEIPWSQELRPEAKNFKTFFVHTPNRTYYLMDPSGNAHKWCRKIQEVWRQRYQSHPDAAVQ
T30 sequence (P19525 whole entry): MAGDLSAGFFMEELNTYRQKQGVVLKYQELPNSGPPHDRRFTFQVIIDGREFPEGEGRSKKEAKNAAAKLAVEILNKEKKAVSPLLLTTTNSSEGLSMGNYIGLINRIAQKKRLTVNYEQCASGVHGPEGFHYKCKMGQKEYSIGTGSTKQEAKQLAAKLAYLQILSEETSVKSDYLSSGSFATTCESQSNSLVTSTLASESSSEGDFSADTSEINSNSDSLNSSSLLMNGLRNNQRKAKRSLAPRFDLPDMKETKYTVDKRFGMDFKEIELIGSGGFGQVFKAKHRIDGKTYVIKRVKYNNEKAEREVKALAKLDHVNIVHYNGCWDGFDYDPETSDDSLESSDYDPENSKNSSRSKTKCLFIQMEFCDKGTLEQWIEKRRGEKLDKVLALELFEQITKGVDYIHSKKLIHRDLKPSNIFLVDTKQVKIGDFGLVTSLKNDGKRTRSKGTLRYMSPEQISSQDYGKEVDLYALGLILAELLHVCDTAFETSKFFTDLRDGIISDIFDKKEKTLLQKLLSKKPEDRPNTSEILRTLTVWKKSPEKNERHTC
T8 sequence (Q13237 whole entry): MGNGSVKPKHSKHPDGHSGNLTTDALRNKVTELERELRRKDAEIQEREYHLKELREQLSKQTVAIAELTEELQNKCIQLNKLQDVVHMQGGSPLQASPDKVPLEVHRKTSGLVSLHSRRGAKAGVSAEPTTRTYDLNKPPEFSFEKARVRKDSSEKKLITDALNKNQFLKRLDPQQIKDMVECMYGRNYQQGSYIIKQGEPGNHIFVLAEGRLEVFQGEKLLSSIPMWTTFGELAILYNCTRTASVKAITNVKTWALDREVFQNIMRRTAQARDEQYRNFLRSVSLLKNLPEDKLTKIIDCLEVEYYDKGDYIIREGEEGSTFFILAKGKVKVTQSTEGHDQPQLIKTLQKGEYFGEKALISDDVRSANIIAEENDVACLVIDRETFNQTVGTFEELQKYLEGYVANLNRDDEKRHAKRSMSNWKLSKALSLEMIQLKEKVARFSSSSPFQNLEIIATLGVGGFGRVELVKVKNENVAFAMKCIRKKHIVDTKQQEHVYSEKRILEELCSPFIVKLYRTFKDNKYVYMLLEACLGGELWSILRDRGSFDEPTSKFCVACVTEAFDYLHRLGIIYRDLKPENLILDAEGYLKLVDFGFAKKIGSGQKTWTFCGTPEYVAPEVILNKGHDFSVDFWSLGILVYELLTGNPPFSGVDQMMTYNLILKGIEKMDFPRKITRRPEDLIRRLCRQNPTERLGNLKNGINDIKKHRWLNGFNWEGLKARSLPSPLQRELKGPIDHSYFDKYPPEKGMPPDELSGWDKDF
T34 sequence (P50750 whole entry): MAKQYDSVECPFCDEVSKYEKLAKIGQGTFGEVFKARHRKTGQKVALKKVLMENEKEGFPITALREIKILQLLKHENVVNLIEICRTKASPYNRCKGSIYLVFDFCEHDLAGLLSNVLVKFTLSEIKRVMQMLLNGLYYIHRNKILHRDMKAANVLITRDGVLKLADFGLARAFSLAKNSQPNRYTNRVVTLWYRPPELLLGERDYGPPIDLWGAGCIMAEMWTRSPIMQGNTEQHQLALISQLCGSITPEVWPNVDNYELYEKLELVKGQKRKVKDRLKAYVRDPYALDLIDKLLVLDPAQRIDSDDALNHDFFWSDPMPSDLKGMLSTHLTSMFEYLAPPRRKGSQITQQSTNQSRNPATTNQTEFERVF
T34 sequence (O60563 whole entry partner): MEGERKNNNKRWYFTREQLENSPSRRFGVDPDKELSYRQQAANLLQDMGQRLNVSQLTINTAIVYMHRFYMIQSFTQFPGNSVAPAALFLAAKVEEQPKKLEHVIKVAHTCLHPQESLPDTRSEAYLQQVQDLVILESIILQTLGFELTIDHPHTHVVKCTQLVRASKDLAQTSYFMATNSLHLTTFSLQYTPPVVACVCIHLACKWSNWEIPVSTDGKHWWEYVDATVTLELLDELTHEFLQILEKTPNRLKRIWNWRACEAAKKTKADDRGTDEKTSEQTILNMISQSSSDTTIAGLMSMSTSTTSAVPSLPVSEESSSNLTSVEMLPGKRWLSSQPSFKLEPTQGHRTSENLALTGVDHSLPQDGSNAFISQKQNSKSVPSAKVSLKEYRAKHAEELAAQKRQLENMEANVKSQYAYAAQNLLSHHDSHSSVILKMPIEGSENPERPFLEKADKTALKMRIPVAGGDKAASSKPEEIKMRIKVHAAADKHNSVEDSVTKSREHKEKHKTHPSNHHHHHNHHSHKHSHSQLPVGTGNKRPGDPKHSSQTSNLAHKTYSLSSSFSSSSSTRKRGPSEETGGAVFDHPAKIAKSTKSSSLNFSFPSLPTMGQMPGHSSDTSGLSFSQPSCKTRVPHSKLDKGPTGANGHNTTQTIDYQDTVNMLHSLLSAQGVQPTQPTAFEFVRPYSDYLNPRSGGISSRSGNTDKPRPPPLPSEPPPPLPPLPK
T23 sequence (Q9H093 whole entry): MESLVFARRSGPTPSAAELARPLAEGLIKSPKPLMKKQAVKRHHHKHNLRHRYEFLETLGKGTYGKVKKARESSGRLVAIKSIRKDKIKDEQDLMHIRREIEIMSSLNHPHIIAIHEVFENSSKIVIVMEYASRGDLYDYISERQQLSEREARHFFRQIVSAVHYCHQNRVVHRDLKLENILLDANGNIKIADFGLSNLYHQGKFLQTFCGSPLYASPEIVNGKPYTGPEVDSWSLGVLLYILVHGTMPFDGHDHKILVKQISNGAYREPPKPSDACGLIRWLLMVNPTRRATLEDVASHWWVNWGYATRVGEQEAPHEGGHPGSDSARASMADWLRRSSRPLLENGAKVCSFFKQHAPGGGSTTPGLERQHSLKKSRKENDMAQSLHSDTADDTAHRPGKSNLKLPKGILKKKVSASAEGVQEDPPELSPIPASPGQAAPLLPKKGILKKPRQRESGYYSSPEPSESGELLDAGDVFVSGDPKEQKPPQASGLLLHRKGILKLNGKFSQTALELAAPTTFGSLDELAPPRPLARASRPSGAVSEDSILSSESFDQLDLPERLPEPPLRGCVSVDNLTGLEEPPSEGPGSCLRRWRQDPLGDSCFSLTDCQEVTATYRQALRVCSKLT
T16 sequence (P31749 whole entry): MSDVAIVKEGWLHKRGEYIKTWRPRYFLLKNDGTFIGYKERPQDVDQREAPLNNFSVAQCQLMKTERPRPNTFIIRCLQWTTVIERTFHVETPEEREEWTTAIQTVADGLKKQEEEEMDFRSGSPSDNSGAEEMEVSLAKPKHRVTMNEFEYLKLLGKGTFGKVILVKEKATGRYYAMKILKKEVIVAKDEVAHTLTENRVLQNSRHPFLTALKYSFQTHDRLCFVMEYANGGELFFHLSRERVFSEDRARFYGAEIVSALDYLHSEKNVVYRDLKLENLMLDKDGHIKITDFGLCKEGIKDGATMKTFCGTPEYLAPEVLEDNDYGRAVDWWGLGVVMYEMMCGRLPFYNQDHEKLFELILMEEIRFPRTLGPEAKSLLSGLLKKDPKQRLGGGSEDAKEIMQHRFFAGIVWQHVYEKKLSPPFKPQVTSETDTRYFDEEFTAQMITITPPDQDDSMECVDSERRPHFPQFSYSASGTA
T4 sequence (P09769 whole entry): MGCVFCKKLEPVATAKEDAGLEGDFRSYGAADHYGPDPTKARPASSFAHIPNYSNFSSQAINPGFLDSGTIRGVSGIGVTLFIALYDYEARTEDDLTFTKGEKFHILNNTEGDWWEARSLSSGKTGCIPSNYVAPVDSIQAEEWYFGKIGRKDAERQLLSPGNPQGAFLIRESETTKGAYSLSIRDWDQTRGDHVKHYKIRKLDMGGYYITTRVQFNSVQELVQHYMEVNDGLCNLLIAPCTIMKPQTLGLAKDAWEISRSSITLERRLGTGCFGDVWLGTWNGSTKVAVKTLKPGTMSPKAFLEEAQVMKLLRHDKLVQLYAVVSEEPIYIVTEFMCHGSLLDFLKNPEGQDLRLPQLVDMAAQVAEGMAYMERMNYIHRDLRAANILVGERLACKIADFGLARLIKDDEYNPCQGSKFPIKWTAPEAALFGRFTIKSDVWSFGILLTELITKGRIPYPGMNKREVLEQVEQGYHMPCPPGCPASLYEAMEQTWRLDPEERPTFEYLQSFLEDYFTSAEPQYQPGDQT
T3 sequence (Q15759 whole entry): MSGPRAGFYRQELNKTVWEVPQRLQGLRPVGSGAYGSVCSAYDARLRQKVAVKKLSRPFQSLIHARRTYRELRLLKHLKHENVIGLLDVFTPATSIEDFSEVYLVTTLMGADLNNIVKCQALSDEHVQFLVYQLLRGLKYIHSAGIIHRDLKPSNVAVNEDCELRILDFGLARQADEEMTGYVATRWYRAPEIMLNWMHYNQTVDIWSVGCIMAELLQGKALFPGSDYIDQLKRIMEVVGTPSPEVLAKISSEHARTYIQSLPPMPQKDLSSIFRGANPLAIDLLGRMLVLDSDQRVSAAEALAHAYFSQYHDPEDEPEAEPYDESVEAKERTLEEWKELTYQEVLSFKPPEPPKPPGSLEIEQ

Q: What does the source list for `[H]/N=C1/NC(=O)C(=Cc2ccc3c(c2)CCO3)S1` [CaNDY, (Z)-5-[(2,3-dihydrobenzofuran-5-yl)methylene]-2-iminothiazolidin-4-one]?
A: remaining activity at 1 µM (CaMK4): 103%; remaining activity at 1 µM (ROCK1): 92.5%; remaining activity at 1 µM (p38β): 99.7%; remaining activity at 1 µM (FGR): 102%; remaining activity at 1 µM (MRCKα): 128%; remaining activity at 1 µM (MARK1): 94.4%; remaining activity at 1 µM (IKKε): 97.6%; remaining activity at 1 µM (CGK2): 71.1%; remaining activity at 1 µM (NEK4): 86.2%; remaining activity at 1 µM (PKACγ): 78.2%; remaining activity at 1 µM (WNK3): 102%; remaining activity at 1 µM (NEK2): 95.3%; remaining activity at 1 µM (CDC7/ASK): 68%; remaining activity at 1 µM (FLT4): 103%; remaining activity at 1 µM (TSSK3): 110%; remaining activity at 1 µM (AKT1): 104%; remaining activity at 1 µM (EPHA2): 100%; remaining activity at 1 µM (FGFR1): 105%; remaining activity at 1 µM (CDK5/p25): 88.5%; remaining activity at 1 µM (ALK): 98.7%; remaining activity at 1 µM (FMS): 101%; remaining activity at 1 µM (KIT): 99.3%; %Activity (NuaK2): 98.1%; remaining activity at 1 µM (NEK6): 96.1%; remaining activity at 1 µM (NEK1): 95.6%; %Activity (EGFR(L861Q)): 103.3%; remaining activity at 1 µM (ACK): 108%; remaining activity at 1 µM (PDK1): 107%; remaining activity at 1 µM (MAP2K1_Cascade): 99.3%; %Activity (PKR): 95.4%; remaining activity at 1 µM (PEK): 90.4%; remaining activity at 1 µM (QIK): 99.5%; remaining activity at 1 µM (BRSK2): 97.8%; remaining activity at 1 µM (CDK9/CycT1): 19.4%; remaining activity at 1 µM (NPM1-ALK): 97.8%; remaining activity at 1 µM (DDR1): 99.3%
